According to patent US20250353864A1, “INDAZOLE CONTAINING MACROCYCLES AND THEIR USE” (BLOSSOMHILL THERAPEUTICS, INC., priority 2022, published 2025):

Tests used:
Assay type in all cases: biochemical
CLK4 = CLK4 (Homo sapiens (Human), UniProt Q9HAZ1); experiment: Inhibition of CLK4 kinase activity evaluated at Nanosyn (ADP-Glo); conditions: ADP-Glo luminescence
Method in brief: (§1)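 Percent inhibition derived from luminescent ADP detection (ADP-Glo), normalised to DMSO-only and enzyme-free wells. Reactions ran in HEPES pH 7.5 buffer with Mg2+, Triton X-100 and BSA, 1% DMSO, ATP-initiated, for an assay-specific time.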

EGFR Δ746-750 mutant = EGFR Δ746-750 mutant (Homo sapiens (Human), UniProt P00533, DEL746-750); experiment: HotSpot radiometric kinase assay, EGFR Δ746-750 mutant; conditions: 10 μM ATP
Method in brief: (§2)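 Radiometric filter-binding read-out: incorporated 33P was retained on P81 ion-exchange paper after washing away unbound phosphate. Reactions ran 120 min at room temperature with 10 μM final ATP, following ~20 min compound preincubation in Hepes pH 7.5 buffer containing 1% DMSO. IC50 from fitted curves.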

CLK2 = CLK2 (Homo sapiens (Human), UniProt P49760); experiment: Inhibition of CLK2 kinase activity evaluated at Nanosyn (ADP-Glo); conditions: ADP-Glo luminescence
Method in brief: as §1

EGFR WT = EGFR WT (Homo sapiens (Human), UniProt P00533); experiment: HotSpot radiometric kinase assay (Reaction Biology), EGFR WT; conditions: 10 μM ATP
Method in brief: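 Compounds were preincubated ~20 min with kinase/substrate in pH 7.5 Hepes buffer (MgCl2, EGTA, Brij35, BSA, Na3VO4, DTT, 1% DMSO), then ATP plus 33P-ATP was added to 10 μM final. After 120 min at room temperature, reactions were spotted on P81 filters and washed; IC50 values came from curve fits.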

[1] = target: EGFR L858R/T790M/C797S mutant (Homo sapiens (Human), UniProt P00533, C797S/L858R/T790M); experiment: HotSpot radiometric kinase assay, EGFR L858R/T790M/C797S mutant; conditions: 10 μM ATP
Method in brief: as §2

CLK1 = CLK1 (Homo sapiens (Human), UniProt P49759); experiment: Inhibition of CLK1 kinase activity evaluated at Nanosyn (ADP-Glo); conditions: ADP-Glo luminescence
Method in brief: as §1

[2] = target: EGFR Δ746-750/C797S mutant (Homo sapiens (Human), UniProt P00533, C797S/DEL746-750); experiment: HotSpot radiometric kinase assay, EGFR Δ746-750/C797S mutant; conditions: 10 μM ATP
Method in brief: as §2

EGFR L858R mutant = EGFR L858R mutant (Homo sapiens (Human), UniProt P00533, L858R); experiment: HotSpot radiometric kinase assay, EGFR L858R mutant; conditions: 10 μM ATP
Method in brief: as §2

EGFR (D770_N771insNPG) = EGFR (D770_N771insNPG) (Homo sapiens (Human), UniProt P00533, INS770NPG); experiment: HotSpot radiometric kinase assay, EGFR (D770_N771insNPG); conditions: 10 μM ATP, read-out: EGFR (Δ770_N771insNPG) IC50
Method in brief: as §2

EGFR L858R/T790M mutant = EGFR L858R/T790M mutant (Homo sapiens (Human), UniProt P00533, L858R/T790M); experiment: HotSpot radiometric kinase assay, EGFR L858R/T790M mutant; conditions: 10 μM ATP
Method in brief: as §2

CLK3 = CLK3 (Homo sapiens (Human), UniProt P49761); experiment: Inhibition of CLK3 kinase activity evaluated at Nanosyn (ADP-Glo); conditions: ADP-Glo luminescence
Method in brief: as §1

EGFR L858R/T790M/C797S mutant, sequence (P00533 25-1210 T790M/C797S/L858R): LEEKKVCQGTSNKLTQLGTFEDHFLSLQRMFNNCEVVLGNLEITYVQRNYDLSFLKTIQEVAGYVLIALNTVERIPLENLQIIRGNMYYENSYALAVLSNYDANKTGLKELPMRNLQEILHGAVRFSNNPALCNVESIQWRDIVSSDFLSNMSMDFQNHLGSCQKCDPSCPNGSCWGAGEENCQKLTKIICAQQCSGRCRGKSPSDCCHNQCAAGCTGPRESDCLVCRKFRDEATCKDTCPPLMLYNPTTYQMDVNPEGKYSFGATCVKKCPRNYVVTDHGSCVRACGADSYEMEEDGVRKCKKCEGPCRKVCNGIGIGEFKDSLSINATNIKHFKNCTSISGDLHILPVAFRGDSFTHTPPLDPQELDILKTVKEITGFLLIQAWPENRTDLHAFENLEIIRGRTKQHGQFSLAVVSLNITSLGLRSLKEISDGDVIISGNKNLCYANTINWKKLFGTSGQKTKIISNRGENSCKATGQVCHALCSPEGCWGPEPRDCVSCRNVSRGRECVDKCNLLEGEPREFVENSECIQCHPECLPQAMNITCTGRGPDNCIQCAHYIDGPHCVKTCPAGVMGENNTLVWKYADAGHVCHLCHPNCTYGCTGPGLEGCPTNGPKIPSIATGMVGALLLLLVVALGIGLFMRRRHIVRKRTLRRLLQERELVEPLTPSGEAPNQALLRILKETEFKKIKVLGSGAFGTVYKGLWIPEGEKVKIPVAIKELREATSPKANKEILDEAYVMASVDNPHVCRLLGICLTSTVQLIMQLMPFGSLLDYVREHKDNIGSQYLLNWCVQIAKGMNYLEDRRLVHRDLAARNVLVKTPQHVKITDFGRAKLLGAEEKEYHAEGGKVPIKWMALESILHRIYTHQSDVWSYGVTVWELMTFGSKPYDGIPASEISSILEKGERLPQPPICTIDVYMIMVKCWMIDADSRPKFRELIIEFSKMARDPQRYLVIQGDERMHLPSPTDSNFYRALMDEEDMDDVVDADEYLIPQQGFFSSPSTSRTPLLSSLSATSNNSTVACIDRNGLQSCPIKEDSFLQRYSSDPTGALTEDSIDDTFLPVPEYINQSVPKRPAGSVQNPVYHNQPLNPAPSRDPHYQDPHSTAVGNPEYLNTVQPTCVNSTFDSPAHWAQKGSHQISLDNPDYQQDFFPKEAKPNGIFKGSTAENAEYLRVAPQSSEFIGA
EGFR WT, sequence (P00533 25-1210): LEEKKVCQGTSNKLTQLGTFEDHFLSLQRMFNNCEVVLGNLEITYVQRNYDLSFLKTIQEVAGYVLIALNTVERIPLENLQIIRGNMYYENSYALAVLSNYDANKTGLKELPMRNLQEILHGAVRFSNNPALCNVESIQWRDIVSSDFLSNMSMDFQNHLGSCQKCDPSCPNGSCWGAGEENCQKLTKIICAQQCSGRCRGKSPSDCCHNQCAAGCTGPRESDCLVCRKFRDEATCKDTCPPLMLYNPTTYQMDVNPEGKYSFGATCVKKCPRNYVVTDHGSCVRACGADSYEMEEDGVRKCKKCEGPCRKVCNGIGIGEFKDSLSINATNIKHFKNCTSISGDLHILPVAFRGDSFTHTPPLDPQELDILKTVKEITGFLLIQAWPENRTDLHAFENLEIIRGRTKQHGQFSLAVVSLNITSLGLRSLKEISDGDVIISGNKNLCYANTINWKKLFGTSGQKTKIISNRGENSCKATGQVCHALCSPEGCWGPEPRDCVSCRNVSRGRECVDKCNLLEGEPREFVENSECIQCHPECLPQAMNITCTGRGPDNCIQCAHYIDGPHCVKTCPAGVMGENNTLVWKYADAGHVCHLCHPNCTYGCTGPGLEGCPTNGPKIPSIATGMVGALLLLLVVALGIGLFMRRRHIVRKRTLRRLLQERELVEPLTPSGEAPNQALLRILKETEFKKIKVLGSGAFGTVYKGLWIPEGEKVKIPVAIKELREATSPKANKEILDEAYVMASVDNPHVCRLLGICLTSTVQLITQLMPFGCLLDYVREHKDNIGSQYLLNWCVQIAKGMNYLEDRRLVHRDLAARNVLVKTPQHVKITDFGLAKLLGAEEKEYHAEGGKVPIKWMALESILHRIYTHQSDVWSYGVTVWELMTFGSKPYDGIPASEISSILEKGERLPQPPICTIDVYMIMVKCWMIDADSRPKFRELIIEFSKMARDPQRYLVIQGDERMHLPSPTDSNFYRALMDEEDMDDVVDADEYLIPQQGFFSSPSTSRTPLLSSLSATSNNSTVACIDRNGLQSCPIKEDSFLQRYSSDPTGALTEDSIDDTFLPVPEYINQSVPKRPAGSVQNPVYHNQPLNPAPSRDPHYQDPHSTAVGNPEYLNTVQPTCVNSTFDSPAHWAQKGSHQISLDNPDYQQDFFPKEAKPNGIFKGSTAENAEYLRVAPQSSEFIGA
CLK4, sequence (Q9HAZ1 whole entry): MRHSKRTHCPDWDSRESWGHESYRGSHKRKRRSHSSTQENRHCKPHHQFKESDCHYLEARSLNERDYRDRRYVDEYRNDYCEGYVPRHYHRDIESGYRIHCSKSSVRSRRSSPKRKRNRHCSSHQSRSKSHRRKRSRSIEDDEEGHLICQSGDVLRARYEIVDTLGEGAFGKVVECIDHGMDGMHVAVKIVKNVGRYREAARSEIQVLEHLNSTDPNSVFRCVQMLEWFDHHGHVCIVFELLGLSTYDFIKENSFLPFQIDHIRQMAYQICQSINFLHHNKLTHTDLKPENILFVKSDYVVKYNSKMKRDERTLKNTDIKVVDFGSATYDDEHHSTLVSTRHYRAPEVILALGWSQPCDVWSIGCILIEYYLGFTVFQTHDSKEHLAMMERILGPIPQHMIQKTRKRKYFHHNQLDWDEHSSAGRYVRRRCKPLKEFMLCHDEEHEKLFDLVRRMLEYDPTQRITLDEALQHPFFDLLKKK
CLK3, sequence (P49761 whole entry): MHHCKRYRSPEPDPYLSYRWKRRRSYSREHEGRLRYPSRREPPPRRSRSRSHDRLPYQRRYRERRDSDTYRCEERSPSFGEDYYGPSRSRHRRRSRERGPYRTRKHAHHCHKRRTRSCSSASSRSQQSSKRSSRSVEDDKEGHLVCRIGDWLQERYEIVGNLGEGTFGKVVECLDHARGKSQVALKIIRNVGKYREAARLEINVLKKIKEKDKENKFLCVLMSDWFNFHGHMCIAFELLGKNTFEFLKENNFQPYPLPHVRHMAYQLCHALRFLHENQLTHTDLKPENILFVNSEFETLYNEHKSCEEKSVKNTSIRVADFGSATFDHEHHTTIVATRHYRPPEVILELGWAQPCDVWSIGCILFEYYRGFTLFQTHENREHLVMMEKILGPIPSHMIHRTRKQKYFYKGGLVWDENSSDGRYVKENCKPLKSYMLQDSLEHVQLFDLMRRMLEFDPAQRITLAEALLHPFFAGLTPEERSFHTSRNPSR
EGFR Δ746-750 mutant, sequence (P00533 other isoform, or with tags, fused parts or gaps del 1-668/del 746-750 limits assumed): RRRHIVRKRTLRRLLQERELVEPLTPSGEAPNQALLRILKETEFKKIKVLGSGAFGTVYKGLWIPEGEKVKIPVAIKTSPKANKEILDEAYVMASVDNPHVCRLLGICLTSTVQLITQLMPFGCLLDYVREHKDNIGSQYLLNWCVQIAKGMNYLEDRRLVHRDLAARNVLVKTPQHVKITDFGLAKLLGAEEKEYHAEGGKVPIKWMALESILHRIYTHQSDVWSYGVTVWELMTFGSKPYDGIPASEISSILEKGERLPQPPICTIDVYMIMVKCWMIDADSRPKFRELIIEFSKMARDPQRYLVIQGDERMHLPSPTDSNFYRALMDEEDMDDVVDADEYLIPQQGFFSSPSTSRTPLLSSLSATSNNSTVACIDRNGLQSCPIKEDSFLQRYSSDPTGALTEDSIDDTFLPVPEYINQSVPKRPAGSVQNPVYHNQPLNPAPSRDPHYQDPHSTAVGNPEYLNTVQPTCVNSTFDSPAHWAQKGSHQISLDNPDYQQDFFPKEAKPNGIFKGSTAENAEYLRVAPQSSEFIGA
EGFR L858R/T790M mutant, sequence (P00533 25-1210 T790M/L858R): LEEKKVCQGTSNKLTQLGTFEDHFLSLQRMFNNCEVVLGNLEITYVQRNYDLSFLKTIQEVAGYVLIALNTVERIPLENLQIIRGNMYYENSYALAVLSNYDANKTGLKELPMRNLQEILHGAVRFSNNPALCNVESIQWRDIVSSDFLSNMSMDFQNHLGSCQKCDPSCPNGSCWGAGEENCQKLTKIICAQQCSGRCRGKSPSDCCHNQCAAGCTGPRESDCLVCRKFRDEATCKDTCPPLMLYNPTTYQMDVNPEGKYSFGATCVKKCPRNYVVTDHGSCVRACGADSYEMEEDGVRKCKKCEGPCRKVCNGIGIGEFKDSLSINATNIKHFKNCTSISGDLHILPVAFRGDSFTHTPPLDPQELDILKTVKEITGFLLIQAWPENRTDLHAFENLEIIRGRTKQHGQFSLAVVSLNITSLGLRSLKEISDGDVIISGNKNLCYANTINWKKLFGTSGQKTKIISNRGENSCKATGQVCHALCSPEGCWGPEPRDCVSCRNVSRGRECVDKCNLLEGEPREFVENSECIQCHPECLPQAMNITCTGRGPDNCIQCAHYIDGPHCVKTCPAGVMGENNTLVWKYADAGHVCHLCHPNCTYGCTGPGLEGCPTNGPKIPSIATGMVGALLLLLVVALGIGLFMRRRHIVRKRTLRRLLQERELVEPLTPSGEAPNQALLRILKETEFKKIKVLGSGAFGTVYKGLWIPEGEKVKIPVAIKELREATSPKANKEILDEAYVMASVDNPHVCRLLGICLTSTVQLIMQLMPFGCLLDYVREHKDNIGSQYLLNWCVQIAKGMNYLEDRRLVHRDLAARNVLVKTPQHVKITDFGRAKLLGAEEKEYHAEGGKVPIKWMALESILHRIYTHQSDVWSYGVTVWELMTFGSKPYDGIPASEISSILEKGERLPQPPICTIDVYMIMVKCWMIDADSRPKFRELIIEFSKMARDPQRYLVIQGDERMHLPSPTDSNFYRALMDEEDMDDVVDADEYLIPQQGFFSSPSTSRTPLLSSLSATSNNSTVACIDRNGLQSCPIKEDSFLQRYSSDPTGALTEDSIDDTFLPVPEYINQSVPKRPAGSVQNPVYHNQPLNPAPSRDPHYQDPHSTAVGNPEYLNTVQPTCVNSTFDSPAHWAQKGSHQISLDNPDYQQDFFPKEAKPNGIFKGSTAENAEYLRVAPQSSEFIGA

SMILES	IC50 (CLK4) [nM]	IC50 (EGFR Δ746-750 mutant) [nM]	IC50 (CLK2) [nM]	IC50 (EGFR WT) [nM]	IC50 [1] [nM]	IC50 (CLK1) [nM]	IC50 [2] [nM]	IC50 (EGFR L858R mutant) [nM]	IC50 (EGFR (D770_N771insNPG)) [nM]	IC50 (EGFR L858R/T790M mutant) [nM]	IC50 (CLK3) [nM]
Cc1nn(CCO)c2c1/C=C/c1n[nH]c3cc(Cl)c(cc13)-c1cnn(C)c1O[C@@H](C)CN(C)C2 [Example 125, 2-[(10S,17E)-19-chloro-8,10,12,16-tetramethyl-2,8,10,11,12,13-hexahydro-14H-3,5-ethenotripyrazolo[3,4-f:3′,4′-j:4″,3″-n][1,4]oxazacyclopentadecin-14-yl]ethan-1-ol]	4.31	20.6	2.81	138	7.49	3.44	4.99	11.9	175	43.6	1000
Cn1ncc2c1OCCN1CC[C@@H](Oc3ccc(F)cc3/C=C/c3n[nH]c4ccc-2cc34)C1=O [Example 132, (10R,16E)-14-fluoro-3-methyl-3,5,6,9,10,19-hexahydro-8H-20,22-etheno-7,10-methanodipyrazolo[3,4-i:4′,3′-m][1,8,5]benzodioxazacyclooctadecin-25-one]	0.3	39.4	0.02	721	35.3	0.19	67	157	284	20.1	0.28
CCOc1nn(CCO)c2c1/C=C/c1n[nH]c3ccc(cc13)-c1cnn(C)c1O[C@@H]1CCCN(C2)C1 [Example 137, 2-[(10R,19E)-18-ethoxy-8-methyl-2,10,11,12,13,15-hexahydro-3,5-etheno-10,14-methanotripyrazolo[3,4-h:3′,4′-l:4″,3″-p][1,6]oxazacycloheptadecin-16(8H)-yl]ethan-1-ol]	1.55	6.59	2.13	55.3	1.02	1.37	4.8	7.8	129	0.6	79.2
CCOc1nn(CCO)c2c1/C=C/c1n[nH]c3ccc(cc13)-c1c(C)nn(C)c1O[C@@H](C)CN(C(C)C)C2 [Example 142, 2-[(10S,17E)-16-ethoxy-6,8,10-trimethyl-12-(propan-2-yl)-2,8,10,11,12,13-hexahydro-14H-3,5-ethenotripyrazolo[3,4-f:3′,4′-j:4″,3″- n][1,4]oxazacyclopentadecin-14-yl]ethan-1-ol]	5.91	1.11	13.9	2.14	1.83	11.9	1.32	0.9	16.7	1.29	1000
CCOc1nn(CCO)c2c1/C=C/c1n[nH]c3ccc(cc13)-c1cnn(C)c1O[C@@H](C)CN(C(C)C)C2 [Example 151, 2-[(10S,17E)-16-ethoxy-8,10-dimethyl-12-(propan-2-yl)-2,8,10,11,12,13-hexahydro-14H-3,5-ethenotripyrazolo[3,4-f:3′,4′-j:4″,3″-n][1,4]oxazacyclopentadecin-14-yl]ethan-1-o]	0.52	0.3	0.04	0.87	0.46	0.24	0.72	0.22	2.55	0.48	23
CCOc1nn(C)c2c1/C=C/c1n[nH]c3ccc(cc13)-c1cnn(C)c1O[C@@H]1CCCN(C2)C1 [Example 160, (10R,19E)-18-ethoxy-8,16-dimethyl-2,8,10,11,12,13,15,16-octahydro-3,5-etheno-10,14-methanotripyrazolo[3,4-h:3′,4′-l:4″,3″- p][1,6]oxazacycloheptadecine]	0.41	13.6	0.3	63	1.08	0.22	19.5	34.4	246	1.42	38.2
Cc1nn(C)c2c1/C=C/c1n[nH]c3ccc(cc13)-c1cnn(C)c1O[C@@H](C)CN(C1CC1)C2 [Example 161, (10S,17E)-12-cyclopropyl-8,10,14,16-tetramethyl-2,10,11,12,13,14-hexahydro-8H-3,5-ethenotripyrazolo[3,4-f:3′,4′-j:4″,3″-n][1,4]oxazacyclopentadecine]	0.57	20	0.14	171	1.4	0.27	13.5	47.1	191	3.1	164
CSCn1ncc2c1O[C@@H](C)CN(C(C)C)Cc1c(c(C)nn1C)/C=C/c1n[nH]c3ccc-2cc13 [Example 164, (10S,17E)-10,14,16-trimethyl-8-[(methylsulfanyl)methyl]-12-(propan-2-yl)-2,10,11,12,13,14-hexahydro-8H-3,5-ethenotripyrazolo[3,4-f:3′,4′-j:4″,3″-n][1,4]oxazacyclopentadecine]	0.59	33.4	0.75	220	1.76	0.39	20.2	16.7	95.3	3.23	1000

Results, then the compound that gave them:

IC50 (CLK4) [nM]	IC50 (EGFR Δ746-750 mutant) [nM]	IC50 (CLK2) [nM]	IC50 (EGFR WT) [nM]	IC50 [1] [nM]	IC50 (CLK1) [nM]	IC50 [2] [nM]	IC50 (EGFR L858R mutant) [nM]	IC50 (EGFR (D770_N771insNPG)) [nM]	IC50 (EGFR L858R/T790M mutant) [nM]	IC50 (CLK3) [nM]	SMILES
0.49	16.1	0.12	164	2.8	0.32	19.8	18.6	133	2.07	188	Cc1c2c(nn1C)/C=C/c1n[nH]c3ccc(cc13)-c1cnn(C)c1O[C@@H](C)CN(C)C2 [Example 126, (10S,17E)-8,10,12,14,15-pentamethyl-2,10,11,12,13,15-hexahydro-8H-3,5-ethenotripyrazolo[4,3-f:3′,4′-j:4″,3″-n][1,4]oxazacyclopentadecine]
0.61	39.4	0.02	320	4.63	0.19	41.3	39.6	1630	1.58	12.1	C[C@H]1CN(C)Cc2c(c(OC3CCN(S(C)(=O)=O)CC3)nn2C)/C=C/c2n[nH]c3ccc(cc23)-c2cnn(C)c2O1 [Example 143, (10S,17E)-16-{[1-(methanesulfonyl)piperidin-4-yl]oxy}-8,10,12,14-tetramethyl-2,10,11, 12,13,14-hexahydro-8H-3,5-ethenotripyrazolo[3,4-f 3′,4′-j:4″,3″-n][1,4]oxazacyclopentadecine]
0.81	0.62	0.14	1.74	0.62	0.43	0.86	0.34	6.36	0.45	87.4	CCOc1nn([C@@H](C)CO)c2c1/C=C/c1n[nH]c3ccc(cc13)-c1cnn(C)c1O[C@@H](C)CN(C)C2 [Example 155]
0.4	1.77	0.13	19.3	1.04	0.42	3.62	4.34	64.9	0.88	63.6	CCOc1nn(C)c2c1/C=C/c1n[nH]c3ccc(cc13)-c1cnn(C)c1O[C@@H](C)CN(C(C)C)C2 [Example 156, (10S,17E)-16-ethoxy-8,10,14-trimethyl-12-(propan-2-yl)-2,10,11,12,13,14-hexahydro-8H-3,5-ethenotripyrazolo[3,4-f:3′,4′-j:4″,3″-n][1,4]oxazacyclopentadecine]
0.25	30.5	0.07	238	0.9	0.11	33.5	47.4	523	1.4	784	C[C@H]1CN(C)Cc2c(c(OCC(F)(F)F)nn2C)/C=C/c2n[nH]c3ccc(cc23)-c2cnn(C)c2O1 [Example 162, (10S,17E)-8,10,12,14-tetramethyl-16-(2,2,2-trifluoroethoxy)-2,10,11,12,13,14-hexahydro-8H-3,5-ethenotripyrazolo[3,4-f:3′,4′-j:4″,3″-n][1,4]oxazacyclopentadecine]
